Assay results taken from patent US20060235076A1, “Medicinal composition for treating infection with drug-resistant staphylococcus aureus” (priority 2003, published 2006).

Tested on: MRSA COL and MRSA Strain No. 5
Assay: Potentiating effect of various gallates for antibacterial activity of oxacillin (MIC by broth microdilution method and FIC)
Type: cell-based, Staphylococcus aureus
Conditions: for effect of the combination use with oxacillin by FIC values: COL Strain and Strain No. 5; for FIC value: combination with oxacillin
Protocol: According to the broth microdilution method defined by Japan Society of Chemotherapy, MIC was determined. CAMHA was prepared by adding 50 mg/l of Ca-ion, 25 mg/l of Mg-ion, and 2% of NaCl to MHB (Mueller-Hinton Broth), and it was used as a medium for use in the measurement of sensitivity. In 96-well microplates 100 μl of the medium for use in the measurement of sensitivity containing drugs was dispensed. The bacterial liquid was incubated at 37° C. overnight, diluted with saline and added to the plate so that the final concentration of the bacteria was 5×10^5 CFU/well. […] FIC (fractional inhibitory concentration) was calculated from the result and the potency of the effect of the combination use was evaluated.

SMILES | effect of the combination use with oxacillin by FIC values | FIC value (MRSA COL) | FIC value (MRSA Strain No. 5)
O=C(O[C@@H]1Cc2c(O)cc(O)cc2O[C@@H]1c1ccc(O)c(O)c1)c1cc(O)c(O)c(O)c1 [Epicatechin gallate, epicatechin gallate] | more potent effects of the combination use | 0.127 | 0.188
O=C(O[C@@H]1Cc2c(O)cc(O)cc2O[C@H]1c1cc(O)c(O)c(O)c1)c1cc(O)c(O)c(O)c1 [Gallocatechin gallate, gallocatechin gallate] | more potent effects of the combination use | 0.281 | 0.188
